Laboratory results published in patent US4864023A, “Pyrido(3,2,1-IJ)-1,3,4-benzoxadiazine derivatives” (priority 1988, dated 1989).
Converted amounts (≈) assume the structure as drawn. Read-outs that look alike come from different tables or passages of the source.

Tests used:
Assay in all cases: in vitro antibacterial activity, standard agar dilution method
Format in all cases: cell-based
[1] = tested on: Bacillus subtilis PCI 219; conditions: PCI219, aerobic, read-out: minimum inhibitory concentration (MIC)
[2] = tested on: Staphylococcus aureus FDA 209P JC-1; conditions: FDA209P, read-out: minimum inhibitory concentration (MIC)
[3] = tested on: Staphylococcus aureus NR 2855
[4] = tested on: Staphylococcus aureus Smith; conditions: read-out: minimum inhibitory concentration (MIC)
[5] = tested on: Staphylococcus epidermidis IFO 12993; conditions: IFO12993, aerobic, read-out: minimum inhibitory concentration (MIC)
[6] = tested on: Staphylococcus epidermidis NR 2942; conditions: NR2942, aerobic, read-out: minimum inhibitory concentration (MIC)
[7] = tested on: Enterococcus faecalis NR 2943; conditions: NR2943, aerobic, read-out: minimum inhibitory concentration (MIC)
[8] = tested on: Alcaligenes faecalis IFO 13111; conditions: IFO13111, aerobic, read-out: minimum inhibitory concentration (MIC)
[9] = tested on: Citrobacter freundii IFO 12681; conditions: IFO12681, aerobic, read-out: minimum inhibitory concentration (MIC)
[10] = tested on: Enterobacter aerogenes NR 2945; conditions: Klebsiella aerogenes, NR2945, aerobic, read-out: minimum inhibitory concentration (MIC)
[11] = tested on: Enterobacter cloacae NR 2946; conditions: NR2946, aerobic, read-out: minimum inhibitory concentration (MIC)
[12] = tested on: Escherichia coli NIHJ JC-2; conditions: NIHJJC2, aerobic, read-out: minimum inhibitory concentration (MIC)
Escherichia coli NR 2630 = conditions: NR2630; Escherichia coli NR 2630; aerobic; agar dilution; read-out: minimum inhibitory concentration (MIC)
[13] = tested on: Klebsiella pneumoniae FDA PCI 602; conditions: FDAPCI602, aerobic, read-out: minimum inhibitory concentration (MIC)
[14] = tested on: Bordetella bronchiseptica ATCC 4617; conditions: ATCC4617, aerobic, read-out: minimum inhibitory concentration (MIC)
[15] = tested on: Proteus rettgeri ATCC 14505; conditions: Providencia rettgeri, ATCC14505, aerobic, read-out: minimum inhibitory concentration (MIC)
[16] = tested on: Proteus vulgaris OX19 ATCC 6898; conditions: ATCC6898, aerobic, read-out: minimum inhibitory concentration (MIC)
[17] = tested on: Pseudomonas aeruginosa A3; conditions: aerobic, read-out: minimum inhibitory concentration (MIC)
[18] = tested on: Pseudomonas aeruginosa NR 2950; conditions: NR2950, aerobic, read-out: minimum inhibitory concentration (MIC)
[19] = tested on: Serratia marcescens IFO 12648; conditions: IFO12648, aerobic, read-out: minimum inhibitory concentration (MIC)
[20] = tested on: Salmonella typhimurium IFO 12529; conditions: Salmonella enterica, aerobic, read-out: minimum inhibitory concentration (MIC)
[21] = Staphylococcus aureus FDA 209P JC-1, aerobic, agar dilution
[22] = NR2855, Staphylococcus aureus NR 2855, aerobic, agar dilution, read-out: minimum inhibitory concentration (MIC)
[23] = Staphylococcus aureus Smith, aerobic, agar dilution

SMILES: CNC1CCN(c2c(F)cc3c(=O)c(C(=O)O)cn4c3c2OCN4C)CC1 [Example 34]
- MIC [1]: 0.05 µg/mL (≈ 0.133 µM)
- MIC [2, 21]: 0.2 µg/mL (≈ 0.531 µM)
- MIC [3, 22]: 1.56 µg/mL (≈ 4.14 µM)
- MIC [4, 23]: 0.2 µg/mL (≈ 0.531 µM)
- MIC [5]: 0.78 µg/mL (≈ 2.07 µM)
- MIC [6]: 0.78 µg/mL (≈ 2.07 µM)
- MIC [7]: 6.25 µg/mL (≈ 16.6 µM)
- MIC [8]: 50 µg/mL (≈ 133 µM)
- MIC [9]: 0.2 µg/mL (≈ 0.531 µM)
- MIC [10]: 0.1 µg/mL (≈ 0.266 µM)
- MIC [11]: 0.2 µg/mL (≈ 0.531 µM)
- MIC [12]: 0.2 µg/mL (≈ 0.531 µM)
- MIC (Escherichia coli NR 2630): 0.1 µg/mL (≈ 0.266 µM)
- MIC [13]: 0.78 µg/mL (≈ 2.07 µM)
- MIC [14]: 25 µg/mL (≈ 66.4 µM)
- MIC [15]: 3.13 µg/mL (≈ 8.32 µM)
- MIC [16]: 0.05 µg/mL (≈ 0.133 µM)
- MIC [17]: 0.78 µg/mL (≈ 2.07 µM)
- MIC [18]: 6.25 µg/mL (≈ 16.6 µM)
- MIC [19]: 0.78 µg/mL (≈ 2.07 µM)
- MIC [20]: 0.1 µg/mL (≈ 0.266 µM)

SMILES: CCNC1CCN(c2c(F)cc3c(=O)c(C(=O)O)cn4c3c2OCN4C)CC1 [Example 35]
- MIC [1]: 0.05 µg/mL (≈ 0.128 µM)
- MIC ([2]; Staphylococcus aureus): 0.39 µg/mL (≈ 0.999 µM)
- MIC [3, 22]: 1.56 µg/mL (≈ 4 µM)
- MIC ([4]; Staphylococcus aureus): 0.39 µg/mL (≈ 0.999 µM)
- MIC [5]: 0.78 µg/mL (≈ 2 µM)
- MIC [6]: 0.78 µg/mL (≈ 2 µM)
- MIC [7]: 6.25 µg/mL (≈ 16 µM)
- MIC [8]: 25 µg/mL (≈ 64 µM)
- MIC [9]: 0.2 µg/mL (≈ 0.512 µM)
- MIC [10]: 0.1 µg/mL (≈ 0.256 µM)
- MIC [11]: 0.39 µg/mL (≈ 0.999 µM)
- MIC [12]: 0.1 µg/mL (≈ 0.256 µM)
- MIC (Escherichia coli NR 2630): 0.1 µg/mL (≈ 0.256 µM)
- MIC [13]: 1.56 µg/mL (≈ 4 µM)
- MIC [14]: 12.5 µg/mL (≈ 32 µM)
- MIC [15]: 3.13 µg/mL (≈ 8.02 µM)
- MIC [16]: 0.05 µg/mL (≈ 0.128 µM)
- MIC [17]: 1.56 µg/mL (≈ 4 µM)
- MIC [18]: 12.5 µg/mL (≈ 32 µM)
- MIC [19]: 1.56 µg/mL (≈ 4 µM)
- MIC [20]: 0.1 µg/mL (≈ 0.256 µM)

SMILES: CN1COc2c(N3CCC(CN)CC3)c(F)cc3c(=O)c(C(=O)O)cn1c23 [Example 12]
- MIC [1]: 0.1 µg/mL (≈ 0.266 µM)
- MIC [2, 21]: 0.1 µg/mL (≈ 0.266 µM)
- MIC [3, 22]: 0.78 µg/mL (≈ 2.07 µM)
- MIC [4, 23]: 0.1 µg/mL (≈ 0.266 µM)
- MIC [5]: 0.39 µg/mL (≈ 1.04 µM)
- MIC [6]: 0.39 µg/mL (≈ 1.04 µM)
- MIC [7]: 3.13 µg/mL (≈ 8.32 µM)
- MIC [8]: 50 µg/mL (≈ 133 µM)
- MIC [9]: 0.78 µg/mL (≈ 2.07 µM)
- MIC [10]: 0.2 µg/mL (≈ 0.531 µM)
- MIC [11]: 0.78 µg/mL (≈ 2.07 µM)
- MIC [12]: 0.2 µg/mL (≈ 0.531 µM)
- MIC (Escherichia coli NR 2630): 0.1 µg/mL (≈ 0.266 µM)
- MIC [13]: 3.13 µg/mL (≈ 8.32 µM)
- MIC [14]: 6.25 µg/mL (≈ 16.6 µM)
- MIC [15]: 12.5 µg/mL (≈ 33.2 µM)
- MIC [16]: 0.1 µg/mL (≈ 0.266 µM)
- MIC [17]: 0.78 µg/mL (≈ 2.07 µM)
- MIC [18]: 12.5 µg/mL (≈ 33.2 µM)
- MIC [19]: 3.13 µg/mL (≈ 8.32 µM)
- MIC [20]: 0.2 µg/mL (≈ 0.531 µM)

SMILES: CC(=O)N1CCN(c2c(F)cc3c(=O)c(C(=O)O)cn4c3c2OCN4C)CC1 [Example 50, 10-(4-acetyl-1-piperazinyl)-9-fluoro-3-methyl-7-oxo-2,3-dihydro-7H-pyrido[3,2,1-ij]-1,3,4-benzoxadiazine-6-carboxylic acid]
- MIC [1]: 0.0065 µg/mL (≈ 0.0167 µM)
- MIC ([2]; Staphylococcus aureus): 0.39 µg/mL (≈ 0.999 µM)
- MIC ([3]; Staphylococcus aureus, NR2855, read-out: minimum inhibitory concentration (MIC)): 0.39 µg/mL (≈ 0.999 µM)
- MIC [4, 23]: 0.1 µg/mL (≈ 0.256 µM)
- MIC [5]: 0.39 µg/mL (≈ 0.999 µM)
- MIC [6]: 0.2 µg/mL (≈ 0.512 µM)
- MIC [7]: 3.13 µg/mL (≈ 8.02 µM)
- MIC [8]: 12.5 µg/mL (≈ 32 µM)
- MIC [9]: 3.13 µg/mL (≈ 8.02 µM)
- MIC [10]: 0.78 µg/mL (≈ 2 µM)
- MIC [11]: 1.56 µg/mL (≈ 4 µM)
- MIC [12]: 1.56 µg/mL (≈ 4 µM)
- MIC (Escherichia coli NR 2630): 0.2 µg/mL (≈ 0.512 µM)
- MIC [13]: 6.25 µg/mL (≈ 16 µM)
- MIC [14]: 3.13 µg/mL (≈ 8.02 µM)
- MIC [15]: 6.25 µg/mL (≈ 16 µM)
- MIC [16]: 0.39 µg/mL (≈ 0.999 µM)
- MIC [17]: 6.25 µg/mL (≈ 16 µM)
- MIC [18]: 25 µg/mL (≈ 64 µM)
- MIC [19]: 3.13 µg/mL (≈ 8.02 µM)
- MIC [20]: 0.78 µg/mL (≈ 2 µM)

SMILES: CN1COc2c(N3CCS(=O)(=O)CC3)c(F)cc3c(=O)c(C(=O)O)cn1c23 [Example 39, 10-(1,1-dioxide-4-thiomorpholinyl)-9-fluoro-3-methyl-7-oxo-2,3-dihydro-7H-pyrido[3,2,1-ij]-1,3,4-benzoxadiazine-6-carboxylic acid]
- MIC [1]: 0.025 µg/mL (≈ 0.0629 µM)
- MIC [2, 21]: 0.39 µg/mL (≈ 0.981 µM)
- MIC [3, 22]: 0.78 µg/mL (≈ 1.96 µM)
- MIC [4, 23]: 0.39 µg/mL (≈ 0.981 µM)
- MIC [5]: 0.39 µg/mL (≈ 0.981 µM)
- MIC [6]: 0.39 µg/mL (≈ 0.981 µM)
- MIC [7]: 12.5 µg/mL (≈ 31.5 µM)
- MIC [8]: 6.25 µg/mL (≈ 15.7 µM)
- MIC [9]: 0.78 µg/mL (≈ 1.96 µM)
- MIC [10]: 0.05 µg/mL (≈ 0.126 µM)
- MIC [11]: 0.78 µg/mL (≈ 1.96 µM)
- MIC [12]: 0.78 µg/mL (≈ 1.96 µM)
- MIC (Escherichia coli NR 2630): 0.025 µg/mL (≈ 0.0629 µM)
- MIC [13]: 1.56 µg/mL (≈ 3.93 µM)
- MIC [14]: 0.78 µg/mL (≈ 1.96 µM)
- MIC [15]: 3.13 µg/mL (≈ 7.88 µM)
- MIC [16]: 0.05 µg/mL (≈ 0.126 µM)
- MIC [17]: 3.13 µg/mL (≈ 7.88 µM)
- MIC [18]: 12.5 µg/mL (≈ 31.5 µM)
- MIC [19]: 1.56 µg/mL (≈ 3.93 µM)
- MIC [20]: 0.2 µg/mL (≈ 0.503 µM)

SMILES: C=CCN1CCN(c2c(F)cc3c(=O)c(C(=O)O)cn4c3c2OCN4C)CC1 [Example 46]
- MIC [1]: 0.05 µg/mL (≈ 0.129 µM)
- MIC [2, 21]: 0.78 µg/mL (≈ 2.01 µM)
- MIC [3, 22]: 0.39 µg/mL (≈ 1 µM)
- MIC [4, 23]: 0.39 µg/mL (≈ 1 µM)
- MIC [5]: 0.78 µg/mL (≈ 2.01 µM)
- MIC [6]: 0.39 µg/mL (≈ 1 µM)
- MIC [7]: 6.25 µg/mL (≈ 16.1 µM)
- MIC [8]: 1.56 µg/mL (≈ 4.02 µM)
- MIC [9]: 0.1 µg/mL (≈ 0.257 µM)
- MIC [10]: 0.1 µg/mL (≈ 0.257 µM)
- MIC [11]: 0.2 µg/mL (≈ 0.515 µM)
- MIC [12]: 0.1 µg/mL (≈ 0.257 µM)
- MIC (Escherichia coli NR 2630): 0.05 µg/mL (≈ 0.129 µM)
- MIC [13]: 0.78 µg/mL (≈ 2.01 µM)
- MIC [14]: 0.39 µg/mL (≈ 1 µM)
- MIC [15]: 1.56 µg/mL (≈ 4.02 µM)
- MIC [16]: 0.05 µg/mL (≈ 0.129 µM)
- MIC [17]: 1.56 µg/mL (≈ 4.02 µM)
- MIC [18]: 6.25 µg/mL (≈ 16.1 µM)
- MIC [19]: 0.39 µg/mL (≈ 1 µM)
- MIC [20]: 0.1 µg/mL (≈ 0.257 µM)
